Reference: PubChem BioAssay AID270 (DTP/NCI, 2004)
Results filed as inconclusive are left out.

System: BDF1 mice, s.c. Lewis lung carcinoma, T/C %
Experiment: NCI In Vivo Anticancer Drug Screen. Data for tumor model Lewis Lung Carcinoma (subcutaneous) in B6D2F1 (BDF1) mice
Method in brief: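 The value reflects a ratio in which the treated cohort's survival time or tumour size is compared against mice receiving only vehicle.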

Compound: COc1cc(-c2cc(=O)c3c(OC)c(OC)c(OC)c(OC)c3o2)cc(OC)c1OC
- T/C (endpoint: mean tumor weight, dose: 50.0 mg/kg/injection, schedule: Q01DX010 (sc), vehicle: steriod suspending solution, higher = larger tumour): 87 % of control
- T/C (endpoint: mean tumor weight, dose: 100.0 mg/kg/injection, schedule: Q01DX010 (sc), vehicle: steriod suspending solution, higher = larger tumour): 102 % of control
- T/C (endpoint: mean tumor weight, dose: 200.0 mg/kg/injection, schedule: Q01DX010 (sc), vehicle: steriod suspending solution, higher = larger tumour): 97 % of control

Compound: O=C(O)CSC1(SCC(=O)O)CCCCC1
- T/C (endpoint: mean tumor weight, dose: 133.0 mg/kg/injection, schedule: Q01DX011 (ip), vehicle: other, higher = larger tumour): 75 % of control
- T/C (endpoint: mean tumor weight, dose: 200.0 mg/kg/injection, schedule: Q01DX011 (ip), vehicle: other, higher = larger tumour): 77 % of control
- T/C (endpoint: mean tumor weight, dose: 300.0 mg/kg/injection, schedule: Q01DX011 (ip), vehicle: other, higher = larger tumour): 104 % of control
- T/C (endpoint: mean tumor weight, dose: 450.0 mg/kg/injection, schedule: Q01DX011 (ip), vehicle: other, higher = larger tumour): 86 % of control

Compound: C[C@]12CCC(=O)C=C1CC[C@@H]1[C@@H]2[C@@H](O)C[C@@]2(C)[C@H]1CC[C@]2(O)C(=O)CO
- T/C (endpoint: median survival time, dose: 40.0 mg/kg/injection, schedule: Q02DX009 (ip), vehicle: Klucel (hydroxypropylcellulose) (HPC), higher = longer survival): 98 % of control
- T/C (endpoint: median survival time, dose: 80.0 mg/kg/injection, schedule: Q02DX009 (ip), vehicle: Klucel (hydroxypropylcellulose) (HPC), higher = longer survival): 96 % of control
- T/C (endpoint: median survival time, dose: 160.0 mg/kg/injection, schedule: Q02DX009 (ip), vehicle: Klucel (hydroxypropylcellulose) (HPC), higher = longer survival): 97 % of control
- T/C (endpoint: median survival time, dose: 640.0 mg/kg/injection, schedule: Q02DX009 (ip), vehicle: Klucel (hydroxypropylcellulose) (HPC), higher = longer survival): 88 % of control

Compound: C=CCCCCCCCCC(=O)O
- T/C (endpoint: mean tumor weight, dose: 50.0 mg/kg/injection, schedule: Q01DX011 (ip), vehicle: saline, higher = larger tumour): 92 % of control
- T/C (endpoint: mean tumor weight, dose: 100.0 mg/kg/injection, schedule: Q01DX011 (ip), vehicle: saline, higher = larger tumour): 91 % of control
- T/C (endpoint: mean tumor weight, dose: 200.0 mg/kg/injection, schedule: Q01DX011 (ip), vehicle: saline, higher = larger tumour): 56 % of control
- T/C (endpoint: mean tumor weight, dose: 400.0 mg/kg/injection, schedule: Q01DX011 (ip), vehicle: saline, higher = larger tumour): 84 % of control

Compound: C=C1C(=O)O[C@H]2[C@H]1[C@H](OC(=O)/C(C)=C\C)CC(=C)[C@@H]1[C@H](O)[C@H]3O[C@@]3(C)[C@@]12O
- T/C (endpoint: mean tumor weight, dose: 7.5 mg/kg/injection, schedule: Q01DX011 (ip), vehicle: saline, higher = larger tumour): 63 % of control
- T/C (endpoint: mean tumor weight, dose: 15.0 mg/kg/injection, schedule: Q01DX011 (ip), vehicle: saline, higher = larger tumour): 70 % of control
- T/C (endpoint: mean tumor weight, dose: 30.0 mg/kg/injection, schedule: Q01DX011 (ip), vehicle: saline, higher = larger tumour): 63 % of control

Compound: O=[N+]([O-])c1ccc(/C=N\Nc2ccc([N+](=O)[O-])cn2)cc1
- T/C (endpoint: median survival time, dose: 12.5 mg/kg/injection, schedule: Q01DX009 (ip), vehicle: Klucel (hydroxypropylcellulose) (HPC), higher = longer survival): 88 % of control
- T/C (endpoint: median survival time, dose: 25.0 mg/kg/injection, schedule: Q01DX009 (ip), vehicle: Klucel (hydroxypropylcellulose) (HPC), higher = longer survival): 104 % of control

Compound: O=NN(CCCl)C(=O)Nc1ccc(Br)cc1
- T/C (endpoint: median survival time, dose: 1.25 mg/kg/injection, schedule: Q01DX009 (ip), vehicle: Klucel (hydroxypropylcellulose) (HPC), higher = longer survival): 97 % of control
- T/C (endpoint: median survival time, dose: 2.5 mg/kg/injection, schedule: Q01DX009 (ip), vehicle: Klucel (hydroxypropylcellulose) (HPC), higher = longer survival): 101 % of control
- T/C (endpoint: median survival time, dose: 5.0 mg/kg/injection, schedule: Q01DX009 (ip), vehicle: Klucel (hydroxypropylcellulose) (HPC), higher = longer survival): 88 % of control
- T/C (endpoint: median survival time, dose: 9.4 mg/kg/injection, schedule: Q01DX009 (ip), vehicle: Klucel (hydroxypropylcellulose) (HPC), higher = longer survival): 108 % of control
- T/C (endpoint: median survival time, dose: 10.0 mg/kg/injection, schedule: Q01DX009 (ip), vehicle: Klucel (hydroxypropylcellulose) (HPC), higher = longer survival): 102 % of control

Compound: OC(C1CO1)C(O)C1CO1 (centres undefined)
- T/C (endpoint: mean tumor weight (est.), dose: 1.0 mg/kg/injection, schedule: Q01DX009 (ip), vehicle: saline, higher = larger tumour): 73 % of control
- T/C (endpoint: mean tumor weight (est.), dose: 1.0 mg/kg/injection, schedule: Q04DX003 (ip), vehicle: saline, higher = larger tumour): 65 % of control
- T/C (endpoint: mean tumor weight (est.), dose: 2.0 mg/kg/injection, schedule: Q01DX009 (ip), vehicle: saline, higher = larger tumour): 46 % of control
- T/C (endpoint: mean tumor weight (est.), dose: 2.0 mg/kg/injection, schedule: Q04DX003 (ip), vehicle: saline, higher = larger tumour): 45 % of control
- T/C (endpoint: mean tumor weight (est.), dose: 4.0 mg/kg/injection, schedule: Q04DX003 (ip), vehicle: saline, higher = larger tumour): 63 % of control
- T/C (endpoint: median survival time, dose: 1.0 mg/kg/injection, schedule: Q01DX009 (ip), vehicle: saline, higher = longer survival): 95 % of control
- T/C (endpoint: median survival time, dose: 1.0 mg/kg/injection, schedule: Q04DX003 (ip), vehicle: saline, higher = longer survival): 104 % of control
- T/C (endpoint: median survival time, dose: 2.0 mg/kg/injection, schedule: Q01DX009 (ip), vehicle: saline, higher = longer survival): 117 % of control
- T/C (endpoint: median survival time, dose: 2.0 mg/kg/injection, schedule: Q04DX003 (ip), vehicle: saline, higher = longer survival): 104 % of control
- T/C (endpoint: median survival time, dose: 4.0 mg/kg/injection, schedule: Q04DX003 (ip), vehicle: saline, higher = longer survival): 123 % of control

Compound: C[C@]12C=CC(=O)C=C1CC[C@@H]1[C@@H]2CC[C@]2(C)OC(=O)CC[C@@H]12
- T/C (endpoint: mean tumor weight, dose: 12.5 mg/kg/injection, schedule: Q01DX011 (sc), vehicle: steriod suspending solution, higher = larger tumour): 75 % of control
- T/C (endpoint: mean tumor weight, dose: 25.0 mg/kg/injection, schedule: Q01DX011 (sc), vehicle: steriod suspending solution, higher = larger tumour): 102 % of control
- T/C (endpoint: mean tumor weight, dose: 50.0 mg/kg/injection, schedule: Q01DX011 (sc), vehicle: steriod suspending solution, higher = larger tumour): 53 % of control
- T/C (endpoint: mean tumor weight, dose: 100.0 mg/kg/injection, schedule: Q01DX011 (sc), vehicle: steriod suspending solution, higher = larger tumour): 97 % of control
